The values below come from ChEMBL document CHEMBL1133852, “Stereoselective synthesis of 7 alpha- and 7 beta-aminocholestanol as potent fungicidal drugs” (2001).

Common to all, as to format: functional
The test system of experiment [1] is Candida tropicalis. The experiment in a line: Tested for antifungal activity against 5-FC resistant strain Candida tropicalis CIP 1745-88 after 48 hr incubation.
Experiment [2] concerns Candida albicans. The experiment in a line: Tested for antifungal activity against azole resistant strain Candida albicans CIP 1760-88 after 48 hr incubation.
Another experiment deals with Saccharomyces cerevisiae. Briefly: Tested for antifungal activity against Saccharomyces cerevisiae ATCC 28 383 after 48 hr incubation. Particulars: ATCC 28, 48 h.
The test system of experiment [3] is Candida albicans. Briefly: Tested for antifungal activity against Candida albicans CIP 1180-79 after 48 h incubation.
The test system of experiment [4] is Candida tropicalis. Briefly: Tested for antifungal activity against amp B resistant strain Candida tropicalis CIP 1275-81 after 48 hr incubation.

Structures are written as SMILES. ≈ marks a conversion by molar mass, not a printed value. Some results are limits rather than exact numbers.

Turning to `CC(C)CCCC(C)[C@H]1CC[C@H]2C3C(N)C=C4C[C@@H](O)CCC4(C)[C@H]3CCC12C` (some centres undefined), the MIC stood at 3.1 µg/mL (≈ 7.72 µM) with Candida tropicalis [1]; 2.3 µg/mL (≈ 5.73 µM) in the experiment with Candida albicans [2]; 2.4 µg/mL (≈ 5.97 µM) against Saccharomyces cerevisiae; 2.6 µg/mL (≈ 6.47 µM) with Candida albicans [3]; 1.5 µg/mL (≈ 3.73 µM) with Candida tropicalis [4].

For the molecule `CC(C)CCC[C@@H](C)C1CC[C@H]2[C@@H]3[C@@H](N)CC4C[C@@H](O)CC[C@]4(C)[C@H]3CC[C@]12C` (some centres undefined), the MIC with Candida tropicalis [1] worked out at 3.1 µg/mL (≈ 7.68 µM); in the experiment with Candida albicans [2] it was 1.5 µg/mL (≈ 3.72 µM); in the experiment on Saccharomyces cerevisiae, 0.4 µg/mL (≈ 0.991 µM); with Candida albicans [3] it was 1.5 µg/mL (≈ 3.72 µM); against Candida tropicalis [4], 1.5 µg/mL (≈ 3.72 µM).

As for `CC(C)CCC[C@@H](C)C1CC[C@H]2[C@@H]3[C@H](N)CC4C[C@@H](O)CC[C@]4(C)[C@H]3CC[C@]12C` (some centres undefined), the MIC against Candida tropicalis [1] was found to be 3.1 µg/mL (≈ 7.68 µM); against Candida albicans [2], 3.1 µg/mL (≈ 7.68 µM); in the experiment on Saccharomyces cerevisiae, 3.1 µg/mL (≈ 7.68 µM); in the experiment on Candida albicans [3] it was 6.2 µg/mL (≈ 15.4 µM); in the experiment on Candida tropicalis [4], 1.5 µg/mL (≈ 3.72 µM).

Consider `c1ccc(-c2ccc(C(c3ccccc3)n3ccnc3)cc2)cc1` (centres undefined) [BIFONAZOLE], for which the MIC in the experiment with Candida albicans [2] came out at 50 µg/mL (≈ 161 µM); with Saccharomyces cerevisiae, 6.2 µg/mL (≈ 20 µM); with Candida albicans [3], 12.5 µg/mL (≈ 40.3 µM).

Consider `Nc1nc(=O)[nH]cc1F` [FLUCYTOSINE], for which the MIC in the experiment on Candida tropicalis [1] was over 100 µg/mL; in the experiment on Saccharomyces cerevisiae, 6.2 µg/mL (≈ 48 µM); in the experiment on Candida albicans [3], 50 µg/mL (≈ 387 µM).

As for `C[C@@H]1[C@H](O)[C@@H](C)/C=C/C=C/C=C/C=C/C=C/C=C/C=C/[C@H](O[C@@H]2O[C@H](C)[C@@H](O)[C@H](N)[C@@H]2O)C[C@@H]2O[C@](O)(C[C@@H](O)C[C@@H](O)[C@H](O)CC[C@@H](O)C[C@@H](O)CC(=O)O[C@H]1C)C[C@H](O)[C@H]2C(=O)O` [AMPHOTERICIN B], the MIC against Saccharomyces cerevisiae was 0.3 µg/mL (≈ 0.325 µM); in the experiment with Candida albicans [3], 0.4 µg/mL (≈ 0.433 µM); against Candida tropicalis [4], 12.5 µg/mL (≈ 13.5 µM).
